The text below walks through data of article PMC8464048 (Nucleic Acids Research, 2021).

The target of the assay is T1, EcGlyRS-FL (heterotetrameric (αβ)2 glycyl-tRNA synthetase) (Escherichia coli, UniProt P00960+P00961).
T1 construct: gene glyQ; full-length alpha (1-303) and full-length beta (1-689, C-terminal 6xHis), co-expressed in E. coli BL21(DE3); (αβ)2 heterotetramer
T1 sequence (P00960 1-303): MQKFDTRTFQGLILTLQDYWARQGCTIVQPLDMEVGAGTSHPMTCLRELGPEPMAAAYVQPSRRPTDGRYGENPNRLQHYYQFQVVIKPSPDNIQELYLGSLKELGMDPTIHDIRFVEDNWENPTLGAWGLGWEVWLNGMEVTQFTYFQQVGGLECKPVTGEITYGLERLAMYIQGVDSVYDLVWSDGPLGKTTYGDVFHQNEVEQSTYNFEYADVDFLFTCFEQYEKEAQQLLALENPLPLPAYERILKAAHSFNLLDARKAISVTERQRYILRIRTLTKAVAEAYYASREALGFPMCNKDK
T1 sequence (P00961 1-689): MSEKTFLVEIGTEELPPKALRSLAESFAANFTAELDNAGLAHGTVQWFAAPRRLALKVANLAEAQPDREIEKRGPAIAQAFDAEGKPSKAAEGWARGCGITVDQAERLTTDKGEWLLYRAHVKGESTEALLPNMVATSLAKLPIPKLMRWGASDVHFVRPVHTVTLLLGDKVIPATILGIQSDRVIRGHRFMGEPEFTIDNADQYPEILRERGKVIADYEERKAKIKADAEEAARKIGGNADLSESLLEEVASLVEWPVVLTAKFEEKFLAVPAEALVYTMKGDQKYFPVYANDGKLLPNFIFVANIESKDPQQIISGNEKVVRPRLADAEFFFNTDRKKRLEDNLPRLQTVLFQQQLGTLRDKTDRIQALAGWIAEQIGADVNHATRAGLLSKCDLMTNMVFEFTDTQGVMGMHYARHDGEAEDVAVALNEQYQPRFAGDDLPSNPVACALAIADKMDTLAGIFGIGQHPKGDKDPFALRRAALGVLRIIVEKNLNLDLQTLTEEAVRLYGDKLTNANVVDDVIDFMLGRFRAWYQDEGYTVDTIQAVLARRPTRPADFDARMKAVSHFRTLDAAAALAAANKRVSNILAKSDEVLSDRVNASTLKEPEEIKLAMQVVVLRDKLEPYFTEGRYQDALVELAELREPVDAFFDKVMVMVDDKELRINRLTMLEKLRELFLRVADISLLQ
Description: isothermal titration calorimetry, one-site fit. The format is binding. Background: ITC needs no label: the signal is the heat of the interaction.

Broadly, the Kd is the free concentration of one partner at which half of the binding sites on the other are occupied at equilibrium, for simple one-to-one binding.

For the molecule `Nc1ncnc2c1ncn2[C@@H]1O[C@H](COP(=O)(O)OP(=O)(O)OP(=O)(O)O)[C@@H](O)[C@H]1O` [ATP], the Kd is around 6 µM.
